In ChEMBL document CHEMBL1201862, “PubChem BioAssay data set” (2004):
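Results reflect a 48-hour exposure of cells in 96-well plates to compound at five concentrations. GI50 marks 50% less growth.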 The source made the active and inactive calls. Cut-off read from the data, not from the text of the source: active = GI50 up to about 1.1 µM and inactive = higher.

Experiments:
Assay in all cases: NCI tumour cell line growth inhibition, 48 h
[1] = test system: A498
[2] = test system: OVCAR-3
[3] = test system: K562
[4] = test system: RPMI-8226
[5] = test system: NCI-H460
[6] = test system: COLO 205
[7] = test system: OVCAR-8
[8] = test system: SF-539
[9] = test system: SF-268
[10] = test system: IGROV-1
[11] = test system: EKVX
[12] = test system: RXF 393
[13] = test system: SW-620
[14] = test system: SR
[15] = test system: SK-MEL-28
[16] = test system: NCI-H522
[17] = test system: BT-549
[18] = test system: MDA-MB-231
[19] = test system: SK-OV-3

| SMILES | GI50 [1] | GI50 [2] | GI50 [3] | GI50 [4] | GI50 [5] | GI50 [6] | GI50 [7] | GI50 [8] | GI50 [9] | GI50 [10] | GI50 [11] | GI50 [12] | GI50 [13] | GI50 [14] | GI50 [15] | GI50 [16] | GI50 [17] | GI50 [18] | GI50 [19] |
| --- | --- | --- | --- | --- | --- | --- | --- | --- | --- | --- | --- | --- | --- | --- | --- | --- | --- | --- | --- |
| O=C(O)c1c([N+](=O)[O-])cc(C(F)(F)F)cc1[N+](=O)[O-] | > 100 µM (inactive) | > 100 µM (inactive) | > 100 µM (inactive) | > 100 µM (inactive) | > 100 µM (inactive) | > 100 µM (inactive) | > 100 µM (inactive) | > 100 µM (inactive) | > 100 µM (inactive) | > 100 µM (inactive) | > 100 µM (inactive) | > 100 µM (inactive) | > 100 µM (inactive) | > 100 µM (inactive) | > 100 µM (inactive) | > 100 µM (inactive) |  |  |  |
| CCCNC1=Nc2ccccc2NC(C)C1 (stereo not given) | > 100 µM (inactive) | > 100 µM (inactive) | > 100 µM (inactive) | > 100 µM (inactive) | > 100 µM (inactive) | > 100 µM (inactive) | > 100 µM (inactive) |  | > 100 µM (inactive) | > 100 µM (inactive) | > 100 µM (inactive) | > 100 µM (inactive) | > 100 µM (inactive) |  | > 100 µM (inactive) | > 100 µM (inactive) | > 100 µM (inactive) | > 100 µM (inactive) | > 100 µM (inactive) |
| COc1ccc(NC(=O)C(=O)NNC(=O)c2sc(NNC(C)=O)nc2C)c([N+](=O)[O-])c1 | 33.3 µM (inactive) | 33.5 µM (inactive) | 37.1 µM (inactive) | 65.9 µM (inactive) | > 100 µM (inactive) | > 100 µM (inactive) | > 100 µM (inactive) | > 100 µM (inactive) | 51.8 µM (inactive) | > 10 µM (inactive) | > 100 µM (inactive) |  | 35.6 µM (inactive) | 45.3 µM (inactive) | > 100 µM (inactive) | 30.1 µM (inactive) |  |  | > 100 µM (inactive) |
| CC#CCCCC1(C)CCCNC1=S (stereo not given) |  | > 10 µM (inactive) | > 10 µM (inactive) |  | > 10 µM (inactive) |  | > 10 µM (inactive) | > 10 µM (inactive) | > 10 µM (inactive) | > 10 µM (inactive) | > 10 µM (inactive) | > 10 µM (inactive) | > 10 µM (inactive) | > 10 µM (inactive) |  | > 10 µM (inactive) | > 10 µM (inactive) | > 10 µM (inactive) | > 10 µM (inactive) |
| c1ccc2sc(C3(N4CCCCC4)CCCC3)cc2c1 | 12.7 µM (inactive) | 8.69 µM (inactive) | 6.61 µM (inactive) | 2.38 µM (inactive) | 5.93 µM (inactive) | 5.53 µM (inactive) | 10.4 µM (inactive) | 16.1 µM (inactive) | 11.4 µM (inactive) | 10.6 µM (inactive) | 7.14 µM (inactive) | 14.1 µM (inactive) | 8.02 µM (inactive) | 0.838 µM (active) | 14.6 µM (inactive) | 11.4 µM (inactive) | 12.6 µM (inactive) |  | 15.9 µM (inactive) |
| O=C(O/N=c1/ccc(=O)/c(=N\OC(=O)c2ccccc2)c1=O)c1ccccc1 | > 100 µM (inactive) | > 100 µM (inactive) | 39.4 µM (inactive) | 79.8 µM (inactive) | > 100 µM (inactive) | > 100 µM (inactive) | > 100 µM (inactive) | > 100 µM (inactive) | > 100 µM (inactive) | 89.3 µM (inactive) | > 100 µM (inactive) | > 100 µM (inactive) | > 100 µM (inactive) | > 100 µM (inactive) | > 100 µM (inactive) | > 100 µM (inactive) |  |  | > 100 µM (inactive) |
| CC(C)CCNc1ncnc2[nH]ncc12 | 45 µM (inactive) | > 100 µM (inactive) | 81.8 µM (inactive) | 34 µM (inactive) | > 100 µM (inactive) | 63.4 µM (inactive) | > 100 µM (inactive) |  | > 100 µM (inactive) | > 100 µM (inactive) | 26.4 µM (inactive) | > 100 µM (inactive) | > 100 µM (inactive) |  | > 100 µM (inactive) | 59.4 µM (inactive) | > 100 µM (inactive) | > 100 µM (inactive) | > 100 µM (inactive) |
| CSc1cc(Cl)c(C)cc1S(=O)(=O)NC(=O)NNc1ccccn1 | > 100 µM (inactive) | > 100 µM (inactive) | > 100 µM (inactive) |  | > 100 µM (inactive) | > 100 µM (inactive) | > 100 µM (inactive) | > 100 µM (inactive) | > 100 µM (inactive) | > 100 µM (inactive) | > 100 µM (inactive) | > 100 µM (inactive) | > 100 µM (inactive) | > 100 µM (inactive) | > 100 µM (inactive) | > 100 µM (inactive) |  | > 100 µM (inactive) | > 100 µM (inactive) |
| COc1cc2c(cc1OC)C1(COc3cc(O)c(O)c(O)c3C1=O)C2 (stereo not given) | > 50 µM (inactive) | > 50 µM (inactive) | > 50 µM (inactive) | > 50 µM (inactive) | > 50 µM (inactive) | > 50 µM (inactive) | > 50 µM (inactive) | > 50 µM (inactive) | > 50 µM (inactive) | > 50 µM (inactive) |  | > 50 µM (inactive) | > 50 µM (inactive) | > 50 µM (inactive) | > 50 µM (inactive) | > 50 µM (inactive) |  | > 50 µM (inactive) | > 50 µM (inactive) |
| C#CCC(O)c1ccc(OC)c(OCc2ccccc2)c1 (stereo not given) | > 100 µM (inactive) | > 100 µM (inactive) | 61.9 µM (inactive) | > 100 µM (inactive) | > 100 µM (inactive) | > 100 µM (inactive) | > 100 µM (inactive) | > 100 µM (inactive) | > 100 µM (inactive) | > 100 µM (inactive) | 56.2 µM (inactive) | > 100 µM (inactive) |  |  | > 100 µM (inactive) | > 100 µM (inactive) |  | 59.2 µM (inactive) | > 100 µM (inactive) |
| Cc1c(N2C(=O)C(Cl)C2/C=C/c2ccccc2)c(=O)n(-c2ccccc2)n1C (stereo not given) |  | 20.8 µM (inactive) | 6.58 µM (inactive) | 11.3 µM (inactive) | 26.7 µM (inactive) | 14.1 µM (inactive) | 22.1 µM (inactive) | 22.4 µM (inactive) | 29.6 µM (inactive) | 17.1 µM (inactive) | 6.41 µM (inactive) | 26.9 µM (inactive) | 24.2 µM (inactive) | 17.5 µM (inactive) |  | 14.4 µM (inactive) | 33.4 µM (inactive) | 25.4 µM (inactive) | 32 µM (inactive) |
| CC1(C)C2CCC(O)(C2)C1N (stereo not given) |  | > 100 µM (inactive) | > 100 µM (inactive) | > 100 µM (inactive) | > 100 µM (inactive) | > 100 µM (inactive) | > 100 µM (inactive) | > 100 µM (inactive) | > 100 µM (inactive) | > 100 µM (inactive) | > 100 µM (inactive) | > 100 µM (inactive) | > 100 µM (inactive) | > 100 µM (inactive) | > 100 µM (inactive) |  | > 100 µM (inactive) | > 100 µM (inactive) | > 100 µM (inactive) |
| Clc1ccc(Oc2ccc(/N=C/c3ccc(Cl)cc3Cl)cc2Cl)cc1 |  | 33.8 µM (inactive) |  | 9.2 µM (inactive) | 63.7 µM (inactive) | 64.7 µM (inactive) | 41.2 µM (inactive) | 23.6 µM (inactive) | 31.8 µM (inactive) | 44.8 µM (inactive) | 30.1 µM (inactive) |  | 33 µM (inactive) |  | 34.2 µM (inactive) | 25.2 µM (inactive) | 29.2 µM (inactive) | 51.3 µM (inactive) | 73.3 µM (inactive) |
| CCN1CCCC(C#N)(c2ccccc2)CC1 (stereo not given) | > 100 µM (inactive) |  | > 100 µM (inactive) | > 100 µM (inactive) | > 100 µM (inactive) | > 100 µM (inactive) | > 100 µM (inactive) |  | > 100 µM (inactive) | > 100 µM (inactive) | > 100 µM (inactive) | > 100 µM (inactive) | > 100 µM (inactive) | > 100 µM (inactive) | > 100 µM (inactive) |  |  |  | > 100 µM (inactive) |
| COc1cccc(/C(CC(O)(C(F)(F)F)C(F)(F)F)=N\N(C)C)c1 | > 100 µM (inactive) | > 100 µM (inactive) | > 100 µM (inactive) | > 100 µM (inactive) | > 100 µM (inactive) | > 100 µM (inactive) |  | > 100 µM (inactive) | > 100 µM (inactive) | > 100 µM (inactive) | > 100 µM (inactive) | > 100 µM (inactive) | > 100 µM (inactive) | > 100 µM (inactive) | > 100 µM (inactive) | > 100 µM (inactive) |  | > 100 µM (inactive) | > 100 µM (inactive) |
| Oc1ccc(-c2nc3cc(C(F)(F)F)ccc3n2CC2CCCN3CCCCC23)cc1 (stereo not given) | 14.9 µM (inactive) | 13 µM (inactive) | 15.5 µM (inactive) | 15.6 µM (inactive) | 15.1 µM (inactive) |  | 16 µM (inactive) | 18.7 µM (inactive) | 14.8 µM (inactive) | 12.7 µM (inactive) | 14.8 µM (inactive) | 15.5 µM (inactive) | 15.1 µM (inactive) | 16.6 µM (inactive) | 16.1 µM (inactive) | 15.4 µM (inactive) |  | 14.5 µM (inactive) | 12.6 µM (inactive) |
| O=C1CCCC/C1=C\c1ccc([N+](=O)[O-])cc1 |  | 27.5 µM (inactive) | 2.82 µM (inactive) | 7.57 µM (inactive) | 35.4 µM (inactive) | 18.4 µM (inactive) | 19.4 µM (inactive) | 20.4 µM (inactive) | 34.6 µM (inactive) | 17.1 µM (inactive) | 39.6 µM (inactive) |  | 1.96 µM (inactive) | 20.2 µM (inactive) | 11.4 µM (inactive) | 11 µM (inactive) | 23.3 µM (inactive) | 21.8 µM (inactive) | 17.2 µM (inactive) |
